According to ChEMBL document CHEMBL2069197 (ACS Med Chem Lett, 2012):
In brackets after ≈: the same amount, converted by molar mass.

How the values were obtained:
Rattus norvegicus [1] = test: Drug metabolism in Sprague-Dawley rat assessed as free oxime formation at 10 mg/kg, iv administered as single dose by LC-MS/MS analysis; format: ADME, organism-based; set-up: dose 10 mg/kg, route intravenous; conditions: in vivo
Rattus norvegicus [2] = test: Drug metabolism in Sprague-Dawley rat assessed as progesterone formation at 10 mg/kg, im administered as single dose by LC-MS/MS analysis; format: ADME, organism-based; set-up: dose 10 mg/kg, route intramuscular; conditions: in vivo
[3] = Aqueous solubility of the compound in phosphate buffered saline after 90 mins by laser nephelometry at pH 4; format: physicochemical
[4] = Stability in cortical neurons assessed as drug metabolism at 5 uM; format: ADME; conditions: cortical neurone
Rattus norvegicus [5] = test: Metabolic stability in Sprague-Dawley rat assessed as compound remaining at 10 mg/kg, iv administered as single dose by LC-MS/MS analysis; format: ADME, organism-based; set-up: dose 10 mg/kg, route intravenous; conditions: in vivo
Plasma [6] = test: Drug metabolism human plasma assessed as free oxime formation at 10 uM by LC-MS/MS analysis; format: ADME, cell-free
Rattus norvegicus [7] = test: Drug metabolism in Sprague-Dawley rat assessed as free oxime formation at 10 mg/kg, im administered as single dose by LC-MS/MS analysis; format: ADME, organism-based; set-up: dose 10 mg/kg, route intramuscular; conditions: in vivo
Rattus norvegicus [8] = test: Neuroprotective activity in rat assessed as reduction in bilateral cortical contusion-induced cerebral edema at 8 mg/kg, ip administered at 1 hr post-injury followed by 8 mg/kg, sc administered 6 hrs post-injury measured after 24 hrs relative to untreated control; format: functional; set-up: scale not given: the % may be the effect or the level left
[9] = Drug metabolism in rat liver S9 fraction assessed as free oxime formation; format: ADME, subcellular
[10] = Neuroprotective activity in cortical neurons assessed as reduction in glutamate-induced cell death at 5 uM incubated for 24 hrs prior to glutamate-challenge measured after 24 hrs by MTT assay; format: functional, Cortical neurone; set-up: scale not given: the % may be the effect or the level left
Rattus norvegicus [11] = test: Drug metabolism in Sprague-Dawley rat assessed as progesterone formation at 10 mg/kg, iv administered as single dose by LC-MS/MS analysis; format: ADME, organism-based; set-up: dose 10 mg/kg, route intravenous; conditions: in vivo
Rattus norvegicus [12] = test: Drug metabolism in Sprague-Dawley rat assessed as compound remaining at 10 mg/kg, im administered as single dose by LC-MS/MS analysis; format: ADME, organism-based; set-up: dose 10 mg/kg, route intramuscular; conditions: in vivo
[13] = Half life in aqueous media at pH 7; format: physicochemical; conditions: for half-life: aqueous media; for t1/2: buffer
[14] = Aqueous solubility of the compound in phosphate buffered saline after 90 mins by laser nephelometry at pH 7.4; format: physicochemical
Plasma [15] = test: Drug metabolism rat plasma assessed as free oxime formation at 10 uM by LC-MS/MS analysis; format: ADME, cell-free
[16] = Drug metabolism in rat liver S9 fraction assessed as progesterone formation; format: ADME, subcellular
Liver = test: Metabolic stability in rat liver S9 fraction assessed as compound remaining; format: ADME, subcellular
[17] = Neuroprotective activity in cortical neurons assessed as reduction in glutamate-induced cell death at 10 uM incubated for 24 hrs prior to glutamate-challenge measured after 24 hrs by MTT assay; format: functional, Cortical neurone; set-up: scale not given: the % may be the effect or the level left
[18] = Half life in human plasma; format: ADME, cell-free
[19] = Neuroprotective activity in cortical neurons assessed as reduction in glutamate-induced cell death at 20 uM incubated for 24 hrs prior to glutamate-challenge measured after 24 hrs by MTT assay; format: functional, Cortical neurone; set-up: scale not given: the % may be the effect or the level left
[20] = Neuroprotective activity in cortical neurons assessed as reduction in glutamate-induced cell death at 1 uM incubated for 24 hrs prior to glutamate-challenge measured after 24 hrs by MTT assay; format: functional, Cortical neurone; set-up: scale not given: the % may be the effect or the level left
Rattus norvegicus [21] = test: Neuroprotective activity in rat assessed as reduction in bilateral cortical contusion-induced cerebral edema at 4 mg/kg, iv administered as single dose 1 hr post-injury measured after 24 hrs relative to untreated; format: functional; set-up: scale not given: the % may be the effect or the level left
in vivo = conditions: Sprague-Dawley, rat, plasma, iv, 4 mg/kg
Description: Half life in Sprague-Dawley rat plasma at 4 mg/kg, iv

Rattus norvegicus [22] = test: Drug metabolism in Sprague-Dawley rat plasma assessed as progesterone formation at 4 mg/kg, iv; format: ADME, organism-based; set-up: dose 4 mg/kg, route intravenous; conditions: in vivo

## C/C(=N\OC(=O)[C@@H](N)C(C)C)[C@H]1CC[C@H]2[C@@H]3CCC4=CC(=O)CC[C@]4(C)[C@H]3CC[C@]12C.Cl
Rattus norvegicus [1]
  Drug metabolism: Active
Rattus norvegicus [2]
  Drug metabolism: Not Active
[3]
  solubility kinetic at 1.5 h: > 645 µM
[4]
  Stability: Stable
Rattus norvegicus [5]
  Stability: Unstable
Plasma [6]
  Drug metabolism: Active
Rattus norvegicus [7]
  Drug metabolism: Active
Rattus norvegicus [8]
  Activity: 56%
[9]
  Drug metabolism: Active
[10]
  Activity: 24%
Rattus norvegicus [11]
  Drug metabolism: Active
Rattus norvegicus [12]
  Stability: Unstable
[13]
  half-life: 11.3 h
[14]
  solubility kinetic at 1.5 h: 146 µM
Plasma [15]
  Drug metabolism: Active
[16]
  Drug metabolism: Active

## CO/N=C(\C)[C@H]1CC[C@H]2[C@@H]3CCC4=CC(=O)CC[C@]4(C)[C@H]3CC[C@]12C
[3]
  solubility kinetic at 1.5 h: < 25 µM
[4]
  Stability: Stable
[13]
  half-life: > 240 h
[14]
  solubility kinetic at 1.5 h: < 25 µM

## C/C(=N\O)[C@H]1CC[C@H]2[C@@H]3CCC4=CC(=O)CC[C@]4(C)[C@H]3CC[C@]12C
[4]
  Stability: Stable
Liver
  Stability: Stable
[16]
  Drug metabolism: Not Active

## C/C(=N\OCCN1CCOCC1)[C@H]1CC[C@H]2[C@@H]3CCC4=CC(=O)CC[C@]4(C)[C@H]3CC[C@]12C
[3]
  solubility kinetic at 1.5 h: > 450 µM
[4]
  Stability: Stable
[10]
  Activity: 26%
[13]
  half-life: > 240 h
[14]
  solubility kinetic at 1.5 h: 108 µM (≈ 47.8 µg/mL)

## C/C(=N\OC(=O)C1CCNCC1)[C@H]1CC[C@H]2[C@@H]3CCC4=CC(=O)CC[C@]4(C)[C@H]3CC[C@]12C.Cl
[3]
  solubility kinetic at 1.5 h: 247 µM
[4]
  Stability: Stable
[10]
  Activity: 4%
[13]
  half-life: 94.8 h
[14]
  solubility kinetic at 1.5 h: 247 µM
[17]
  Activity: 24%

## CC(=O)O/N=C(\C)[C@H]1CC[C@H]2[C@@H]3CCC4=CC(=O)CC[C@]4(C)[C@H]3CC[C@]12C
[3]
  solubility kinetic at 1.5 h: 180 µM (≈ 66.9 µg/mL)
[4]
  Stability: Stable
[14]
  solubility kinetic at 1.5 h: 100 µM (≈ 37.2 µg/mL)

## C/C(=N\OC(=O)c1ccc(CN2CCN(C)CC2)cc1)[C@H]1CC[C@H]2[C@@H]3CCC4=CC(=O)CC[C@]4(C)[C@H]3CC[C@]12C
[3]
  solubility kinetic at 1.5 h: < 30 µM
[4]
  Stability: Stable
[13]
  t1/2: ND(Insoluble)
[14]
  solubility kinetic at 1.5 h: < 30 µM

## C/C(=N\OC(=O)[C@@H]1CCCNC1)[C@H]1CC[C@H]2[C@@H]3CCC4=CC(=O)CC[C@]4(C)[C@H]3CC[C@]12C.Cl
[3]
  solubility kinetic at 1.5 h: > 500 µM
[4]
  Stability: Stable
[13]
  half-life: 38.5 h
[14]
  solubility kinetic at 1.5 h: 428 µM

## C/C(=N\OC(=O)c1ccc(CN)cc1)[C@H]1CC[C@H]2[C@@H]3CCC4=CC(=O)CC[C@]4(C)[C@H]3CC[C@]12C.Cl
[3]
  solubility kinetic at 1.5 h: < 30 µM
[4]
  Stability: Stable
[13]
  t1/2: ND(Insoluble)
[14]
  solubility kinetic at 1.5 h: < 30 µM

## CC(=O)[C@H]1CC[C@H]2[C@@H]3CCC4=CC(=O)CC[C@]4(C)[C@H]3CC[C@]12C [PROGESTERONE]
[3]
  solubility kinetic at 1.5 h: < 25 µM
Rattus norvegicus [8]
  Activity: 62%
[10]
  Activity: 4%
[18]
  half-life: 0.417 h
[19]
  Activity: 42%
[13]
  half-life: > 240 h
[14]
  solubility kinetic at 1.5 h: < 25 µM

## C/C(=N\OC(=O)[C@@H]1CCC[N+]1(C)C)[C@H]1CC[C@H]2[C@@H]3CCC4=CC(=O)CC[C@]4(C)[C@H]3CC[C@]12C.[I-]
[3]
  solubility kinetic at 1.5 h: 345 µM
[4]
  Stability: Stable
[13]
  half-life: 0.833 h
[14]
  solubility kinetic at 1.5 h: 51 µM

## C/C(=N\OC(=O)C1CC[N+](C)(C)CC1)[C@H]1CC[C@H]2[C@@H]3CCC4=CC(=O)CC[C@]4(C)[C@H]3CC[C@]12C.[I-]
[3]
  solubility kinetic at 1.5 h: > 500 µM
[4]
  Stability: Stable
[10]
  Activity: 0%
[13]
  half-life: 70.6 h
[14]
  solubility kinetic at 1.5 h: > 500 µM

## C/C(=N\OC(=O)C1CCN(C)CC1)[C@H]1CC[C@H]2[C@@H]3CCC4=CC(=O)CC[C@]4(C)[C@H]3CC[C@]12C
[3]
  solubility kinetic at 1.5 h: > 660 µM
[4]
  Stability: Stable
[14]
  solubility kinetic at 1.5 h: 108 µM (≈ 49.1 µg/mL)

## C/C(=N\OC(=O)C[N+](C)(C)C)[C@H]1CC[C@H]2[C@@H]3CCC4=CC(=O)CC[C@]4(C)[C@H]3CC[C@]12C.[I-]
[3]
  solubility kinetic at 1.5 h: > 540 µM
[4]
  Stability: Stable
[13]
  half-life: 0.933 h
[14]
  solubility kinetic at 1.5 h: 45 µM

## C/C(=N\OC(=O)CN(C)C)[C@H]1CC[C@H]2[C@@H]3CCC4=CC(=O)CC[C@]4(C)[C@H]3CC[C@]12C
[3]
  solubility kinetic at 1.5 h: 449 µM (≈ 186 µg/mL)
[4]
  Stability: Stable
[14]
  solubility kinetic at 1.5 h: 171 µM (≈ 70.9 µg/mL)

## C/C(=N\OC(=O)[C@H]1CCCNC1)[C@H]1CC[C@H]2[C@@H]3CCC4=CC(=O)CC[C@]4(C)[C@H]3CC[C@]12C.Cl
[3]
  solubility kinetic at 1.5 h: 314 µM
[4]
  Stability: Stable
[13]
  half-life: 40.8 h
[14]
  solubility kinetic at 1.5 h: 314 µM

## C/C(=N\OC(=O)c1ccc[n+](C)c1)[C@H]1CC[C@H]2[C@@H]3CCC4=CC(=O)CC[C@]4(C)[C@H]3CC[C@]12C.[I-]
[3]
  solubility kinetic at 1.5 h: 349 µM
[4]
  Stability: Stable
[20]
  Activity: 14%
[10]
  Activity: 0%
[13]
  half-life: 3.1 h
[14]
  solubility kinetic at 1.5 h: 212 µM

## C/C(=N\OC(=O)[C@@H]1CCCN1)[C@H]1CC[C@H]2[C@@H]3CCC4=CC(=O)CC[C@]4(C)[C@H]3CC[C@]12C
[3]
  solubility kinetic at 1.5 h: 395 µM (≈ 169 µg/mL)
[4]
  Stability: Stable
[10]
  Activity: 21%
[14]
  solubility kinetic at 1.5 h: 34 µM (≈ 14.5 µg/mL)
[17]
  Activity: 33%

## CC(=O)[C@H]1CC[C@H]2[C@@H]3CCC4=C/C(=N/O)CC[C@]4(C)[C@H]3CC[C@]12C
[3]
  solubility kinetic at 1.5 h: < 45 µM
[4]
  Stability: Stable
Rattus norvegicus [21]
  Activity: 60%
[10]
  Activity: 21%
[13]
  half-life: > 240 h
In vivo
  half-life: 2.7 h
[14]
  solubility kinetic at 1.5 h: < 45 µM
Rattus norvegicus [22]
  Drug metabolism: Not Active

## CC(=O)[C@H]1CC[C@H]2[C@@H]3CCC4=C/C(=N/OC(=O)[C@@H](N)C(C)C)CC[C@]4(C)[C@H]3CC[C@]12C.Cl
Rattus norvegicus [1]
  Drug metabolism: Active
Rattus norvegicus [2]
  Drug metabolism: Not Active
[3]
  solubility kinetic at 1.5 h: 322 µM
[4]
  Stability: Stable
Rattus norvegicus [5]
  Stability: Unstable
Plasma [6]
  Drug metabolism: Active
Rattus norvegicus [7]
  Drug metabolism: Active
Rattus norvegicus [8]
  Activity: 59%
[10]
  Activity: 27%
Rattus norvegicus [11]
  Drug metabolism: Active
Rattus norvegicus [12]
  Stability: Unstable
[13]
  half-life: 10.1 h
[14]
  solubility kinetic at 1.5 h: 172 µM
Plasma [15]
  Drug metabolism: Active

## C/C(=N\OC(=O)CN1CCOCC1)[C@H]1CC[C@H]2[C@@H]3CCC4=CC(=O)CC[C@]4(C)[C@H]3CC[C@]12C
[3]
  solubility kinetic at 1.5 h: 215 µM (≈ 98.2 µg/mL)
[4]
  Stability: Stable
[14]
  solubility kinetic at 1.5 h: 215 µM (≈ 98.2 µg/mL)

## C/C(=N\OC(=O)CN1CCN(C)CC1)[C@H]1CC[C@H]2[C@@H]3CCC4=CC(=O)CC[C@]4(C)[C@H]3CC[C@]12C
[3]
  solubility kinetic at 1.5 h: 153 µM (≈ 71.9 µg/mL)
[4]
  Stability: Stable
[13]
  half-life: 70.6 h
[14]
  solubility kinetic at 1.5 h: 145 µM (≈ 68.1 µg/mL)

## C/C(=N\OC(=O)c1cccnc1)[C@H]1CC[C@H]2[C@@H]3CCC4=CC(=O)CC[C@]4(C)[C@H]3CC[C@]12C
[3]
  solubility kinetic at 1.5 h: < 35 µM
[4]
  Stability: Stable
[10]
  Activity: 20%
[13]
  t1/2: ND(Insoluble)
[14]
  solubility kinetic at 1.5 h: < 35 µM
